How the values were obtained:
[1] = Percentage bioactive sulfur contained in hydrogen sulfide prodrugs; type: physicochemical; conditions: sulfur capable of being converted into hydrogen sulfide in vivo
[2] = tested on: p47^phox (a subunit of NOX); conditions: Shukla et al., BJU Int. 2009; cited from earlier work
[3] = tested on: cavernosal smooth muscle; conditions: Shukla et al., BJU Int. 2009; cited from earlier work
[4] = tested on: NADPH oxidase (NOX); conditions: Sparatore et al. 2011; cited from earlier work
[5] = biological target: phosphodiesterase type 5 (PDE5) (Homo sapiens, UniProt O76074); conditions: Sparatore et al. 2011; cited from earlier work
[6] = tested on: superoxide formation; conditions: Shukla et al., BJU Int. 2009; cited from earlier work
[7] = tested on: angiogenesis; conditions: NaHS in the drinking water, via increasing VEGF expression, Givvimani et al. 2011; cited from earlier work
[8] = tested on: pregnant rat uterus; conditions: pregnant rat uterus in vitro, Sidhu et al. 2001; cited from earlier work
[9] = Solubility in carbon disulfide; type: physicochemical
Experimental: The solubility of the composition in carbon disulfide was obtained by adding 6 mL of carbon disulfide to 0.500 g of the final product and determining the weight of the residue.

Row | Compound | % Bioactive sulfur (w/w) [1] | also measured
1 | NC(=S)c1ccc(O)cc1 [4-hydroxythiobenzamide] | 20.9 % (w/w) | 
2 | CCCc1nn(C)c2c(=O)[nH]c(-c3cc(S(=O)(=O)N4CCN(CC(=O)Oc5ccc(-c6cc(=S)ss6)cc5)CC4)ccc3OCC)nc12 [ACS 6] | 3.5 % (w/w) | inhibition of expression of p47phox [2]: more than sildenafil citrate; relaxation of cavernosal smooth muscle [3]: equipotently; effect of H2S released by ACS6 on NOX expression activity [4]: inhibits; effect of H2S released by ACS6 on PDE5 [5]: inhibits; inhibition of superoxide formation [6]: more than sildenafil citrate
3 | O=C(Cc1ccccc1Nc1c(Cl)cccc1Cl)Oc1ccc(-c2cc(=S)ss2)cc1 [ACS 15] | 6.3 % (w/w) | 
4 | O=C(CCC/C=C\C[C@@H]1[C@@H](CC[C@@H](O)CCc2ccccc2)[C@H](O)C[C@@H]1O)Oc1ccc(-c2cc(=S)ss2)cc1 [ACS 67] | 5.3 % (w/w) | 
5 | COc1ccc2c(c1)c(CC(=O)Oc1ccc(-c3cc(=S)ss3)cc1)c(C)n2C(=O)c1ccc(Cl)cc1 [ATB 343] | 5.6 % (w/w) | 
6 | COc1ccc2cc(C(C)C(=O)Oc3ccc(C(N)=S)cc3)ccc2c1 (stereo not drawn) [ATB 346] | 8.8 % (w/w) | 
7 | C=CCSSCC=C [Diallyl disulfide] | 45.1 % (w/w) | 
8 | C=CCSSSCC=C [Diallyl trisulfide] | 53.9 % (w/w) | 
9 | c1ccc(CSSSCc2ccccc2)cc1 [Dibenzyl trisulfide] | 11.5 % (w/w) | 
10 | C1COCCN1.COc1ccc(P(=S)(S)N2CCOCC2)cc1 (stereo not drawn) [GYY 4137] | 8.5 % (w/w) | 
11 | [Na+].[Na+].[S-2] [Na2S] | 41 % (w/w) | 
12 | S [NaHS, sodium hydrogen sulfide] | 57 % (w/w) | angiogenesis [7]: augmented angiogenesis; uterine spontaneous contractility [8]: significant dose-dependent decreases
13 | [S] [Pure alpha- or beta-elemental sulfur, elemental sulfur] |  | Solubility in carbon disulfide [9]: completely soluble
14 | C[S+]([O-])CCCCN=C=S (stereo not drawn) [Sulforaphane] | 18 % (w/w) | 
